The text below walks through data of ChEMBL document CHEMBL1201862, “PubChem BioAssay data set” (2004).

Structures are written as SMILES.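 Dose response: 5 concentrations. Exposure: 48 h. Format: 96-well plates. Endpoint: linear interpolation; highest concentration if not reached. GI50 = concentration required for 50% inhibition of growth.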 Active and inactive are the calls of the source. Rule as the data show it: active = GI50 up to about 1.1 µM and inactive = higher.

Among the test systems are KM12; OVCAR-3; HCT-15; MOLT-4; NCI-H522; COLO 205; LOX IMVI; Malme-3M; HCT-116; OVCAR-4; HOP-62; UACC-257; CAKI-1; CCRF-CEM; HT-29; SK-MEL-5; RXF 393; NCI-H23.
Holding throughout (assay): DTP human tumour cell line panel, 48 h

A word on the GI50: it is the concentration that inhibits growth by half. With `O=C(Nc1ccccc1)n1cc(-c2ccccn2)c(N2CCOCC2)n1`, the GI50 in the assay on KM12 is 1.79 µM (inactive); in the assay on OVCAR-3, 2.12 µM (inactive); in the assay with HCT-15 it was 4.47 µM; in the assay with MOLT-4 it was 4.15 µM (inactive); in the assay on NCI-H522, 2.56 µM (inactive); in the assay with COLO 205, 5.14 µM (inactive). Besides, the GI50 was 5.75 µM (inactive) with LOX IMVI; 2.54 µM (inactive) in the assay with Malme-3M; 4.29 µM (inactive) in the assay on HCT-116; > 100 µM (inactive) with OVCAR-4; 6.59 µM (inactive) in the assay on HOP-62; 17.7 µM (inactive) in the assay with UACC-257. Further, the GI50 is 13 µM (inactive) in the assay with CAKI-1, 5.48 µM (inactive) in the assay on CCRF-CEM, 2.69 µM (inactive) with HT-29 and 6.04 µM (inactive) with SK-MEL-5.

For `NC(=S)N/N=C/c1cn(CCCl)c2ccccc12`, the GI50 with KM12 is 32.7 µM (inactive); in the assay on OVCAR-3, 36.8 µM (inactive); in the assay with HCT-15, 8.69 µM; in the assay on RXF 393, > 100 µM (inactive); in the assay on MOLT-4 it was 14.2 µM (inactive); with NCI-H522, 11.9 µM (inactive). Moreover, the GI50 is 46.5 µM (inactive) with COLO 205; > 100 µM (inactive) in the assay with NCI-H23; 25 µM (inactive) in the assay on LOX IMVI; > 100 µM (inactive) with Malme-3M; 27.4 µM (inactive) in the assay on HCT-116; 89.5 µM (inactive) in the assay with HOP-62. Besides, the GI50 in the assay with UACC-257 is 22 µM (inactive); in the assay on CAKI-1, 18.7 µM (inactive); with CCRF-CEM, 20.7 µM (inactive); with HT-29, 23.9 µM (inactive); in the assay with SK-MEL-5 it was 15.9 µM (inactive).

For the molecule `COc1ccc([C@@H]2OC(=O)C3C2C(=O)O[C@H]3c2ccc(OC)cc2)cc1` (stereo partly drawn), the GI50 with KM12 was > 100 µM (inactive); with OVCAR-3, > 100 µM (inactive); with HCT-15 it was greater than 100 µM; in the assay on RXF 393, 76.4 µM (inactive); in the assay with MOLT-4, > 100 µM (inactive); with COLO 205, > 100 µM (inactive). In addition, the GI50 with NCI-H23, in the assay on HCT-116, in the assay with OVCAR-4, in the assay with HOP-62, in the assay on UACC-257 and in the assay on CAKI-1 was > 100 µM (inactive) throughout. Further, the GI50 in the assay with CCRF-CEM and with HT-29 was > 100 µM (inactive) throughout.

As to `CN1C/C(=C\c2ccccc2)C2=NN(C(N)=S)[C@H](c3ccccc3)[C@@H]2C1`, the GI50 was 54 µM (inactive) with KM12; > 100 µM (inactive) in the assay with OVCAR-3; greater than 100 µM with HCT-15; 34.4 µM (inactive) in the assay with RXF 393; 89.1 µM (inactive) in the assay on MOLT-4; 40 µM (inactive) in the assay on NCI-H522. The GI50 in the assay with COLO 205 was 38.5 µM (inactive); in the assay on NCI-H23, 56.4 µM (inactive); in the assay on LOX IMVI, > 100 µM (inactive); with Malme-3M, 36.6 µM (inactive); in the assay on HCT-116, 37.3 µM (inactive); in the assay on OVCAR-4, 56.6 µM (inactive). The GI50 with HOP-62 is > 100 µM (inactive); with UACC-257, 59.2 µM (inactive); in the assay on CCRF-CEM it was 45.6 µM (inactive); in the assay on HT-29, 32.9 µM (inactive).

Consider `CCOC(=O)[C-]([N+]#N)[Si](C)(C)C`, for which the GI50 with KM12 is > 100 µM (inactive); with OVCAR-3, > 100 µM (inactive); with HCT-15, 27.5 µM; in the assay on RXF 393 it was > 100 µM (inactive); in the assay with COLO 205 it was > 100 µM (inactive); in the assay on NCI-H23 it was 75.5 µM (inactive). Also, the GI50 was 85.9 µM (inactive) in the assay on LOX IMVI; > 100 µM (inactive) in the assay on Malme-3M; 53.1 µM (inactive) in the assay on HCT-116; > 100 µM (inactive) in the assay on OVCAR-4; 20.5 µM (inactive) in the assay on HOP-62; 59.3 µM (inactive) in the assay on UACC-257. The GI50 in the assay on CAKI-1, in the assay on HT-29 and in the assay with SK-MEL-5 was > 100 µM (inactive) throughout.

Consider `NC(=O)C(=O)N/N=C1\C(=O)N(c2ccc(Cl)cc2Cl)C(=O)C1C(=O)Nc1ccc(Cl)cc1Cl` (stereo not drawn), for which the GI50 in the assay with KM12 was > 100 µM (inactive); in the assay with OVCAR-3, > 100 µM (inactive); with HCT-15 it was greater than 100 µM; in the assay on RXF 393, > 100 µM (inactive); with MOLT-4 it was > 100 µM (inactive); in the assay with NCI-H522, > 100 µM (inactive). The GI50 with COLO 205, with NCI-H23, in the assay on LOX IMVI, in the assay on Malme-3M, with HCT-116 and in the assay with HOP-62 was > 100 µM (inactive) each time. Besides, the GI50 in the assay on UACC-257, in the assay with CAKI-1, with CCRF-CEM, in the assay on HT-29 and with SK-MEL-5 was > 100 µM (inactive) throughout.

For `CC1OC(n2cc(C(F)(F)F)c(=O)[nH]c2=O)C=CC1=O` (stereo not drawn), the GI50 in the assay with KM12 is 18.5 µM (inactive); in the assay with OVCAR-3, 17.7 µM (inactive); with HCT-15, 20.7 µM; in the assay on MOLT-4 it was 22.6 µM (inactive); in the assay on NCI-H522, 16 µM (inactive); with COLO 205, 19.3 µM (inactive). For the same molecule, the GI50 with NCI-H23 was 18.2 µM (inactive); in the assay on LOX IMVI it was 17.6 µM (inactive); with Malme-3M it was 18.4 µM (inactive); with HCT-116, 16.2 µM (inactive); in the assay on OVCAR-4 it was 13.4 µM (inactive); in the assay on HOP-62 it was 27.7 µM (inactive). The GI50 in the assay on UACC-257 is 19.1 µM (inactive); with HT-29, 24.5 µM (inactive).

On to `COC(=O)C1=C(C(=O)OC)C2C(C)=CC(C)=CN2C(C#N)=C(SC)S1` (stereo not drawn), for which the GI50 is 28.4 µM (inactive) with OVCAR-3; 19.7 µM in the assay on HCT-15; 16.1 µM (inactive) with RXF 393; 23.6 µM (inactive) with MOLT-4; 16.1 µM (inactive) in the assay with NCI-H522; 17.4 µM (inactive) with COLO 205. Also, the GI50 is 17.7 µM (inactive) with NCI-H23; 17.9 µM (inactive) in the assay with LOX IMVI; 24.7 µM (inactive) in the assay on Malme-3M; 15 µM (inactive) with HCT-116; 51.8 µM (inactive) in the assay on HOP-62; 24.3 µM (inactive) in the assay on UACC-257. For the same molecule, the GI50 was 20.3 µM (inactive) with CAKI-1, 17.4 µM (inactive) with CCRF-CEM, 21.1 µM (inactive) in the assay on HT-29 and 14.6 µM (inactive) in the assay on SK-MEL-5.

Consider `O=C(COc1ccc(Cl)cc1)N1CCN(C(=O)COc2ccc(Cl)cc2)c2ccccc21`, for which the GI50 in the assay on KM12 is 57 µM (inactive); in the assay with OVCAR-3 it was 54.6 µM (inactive); in the assay with RXF 393, 47.6 µM (inactive); with MOLT-4 it was 19.2 µM (inactive); in the assay on NCI-H522, 22.5 µM (inactive); in the assay on COLO 205, 45.2 µM (inactive). Moreover, the GI50 is > 100 µM (inactive) in the assay on NCI-H23; 91.2 µM (inactive) with LOX IMVI; 36.6 µM (inactive) with Malme-3M; 30.4 µM (inactive) in the assay on HCT-116; > 100 µM (inactive) in the assay on HOP-62; 25.2 µM (inactive) in the assay with UACC-257. The GI50 in the assay with CCRF-CEM is 34 µM (inactive); in the assay with HT-29, 50.5 µM (inactive).

In the case of `CC12CP(=O)(c3ccccc3)CC1C2(Cl)Cl` (stereo not drawn), the GI50 in the assay with KM12, in the assay with OVCAR-3, in the assay with RXF 393, with MOLT-4, with NCI-H522 and with COLO 205 was > 100 µM (inactive) throughout. For the same molecule, the GI50 in the assay with NCI-H23, in the assay with LOX IMVI, in the assay with HCT-116, with OVCAR-4, in the assay on HOP-62 and with CCRF-CEM was > 100 µM (inactive) throughout. For the same molecule, the GI50 in the assay on HT-29 and in the assay with SK-MEL-5 was > 100 µM (inactive) throughout.
